Results as given in PubChem BioAssay (NCI).
Where “and” joins values, the source holds several entries; their conditions need not be identical. Equal values may be shown once.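 All cell lines were grown in 96-well plates and treated with compound for 48 hours. The concentration for 50% growth inhibition is given as GI50. The concentration for full growth arrest is given as TGI.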

Legend:
Experiment in all cases: NCI-60 cell line screen, 48 h
[1] = tested on: PC-3 prostate
[2] = tested on: OVCAR-4 ovarian
[3] = tested on: SF-539 CNS
[4] = tested on: UACC-62 melanoma
[5] = tested on: SK-MEL-28 melanoma
[6] = tested on: OVCAR-3 ovarian
[7] = tested on: HCT-15 colon
[8] = tested on: SK-MEL-2 melanoma
[9] = tested on: NCI-H460 lung
[10] = tested on: RPMI-8226 leukemia

| Structure (SMILES) | TGI [1] | TGI [2] | TGI [3] | TGI [4] | TGI [5] | TGI [6] | TGI [7] | TGI [8] | TGI [9] | TGI [10] | GI50 [1] | GI50 [2] | GI50 [3] | GI50 [4] | GI50 [5] | GI50 [6] | GI50 [7] | GI50 [8] | GI50 [9] | GI50 [10] |
| --- | --- | --- | --- | --- | --- | --- | --- | --- | --- | --- | --- | --- | --- | --- | --- | --- | --- | --- | --- | --- |
| C[C@]12CCC(=O)C(O)=C1CC[C@@H]1[C@@H]2CC[C@]2(C)C(=O)CC[C@@H]12 | > 100 µM | > 100 µM | > 100 µM | > 100 µM | > 100 µM | > 100 µM | > 100 µM | > 100 µM | > 100 µM | > 100 µM | – | – | – | – | – | – | – | – | – | – |
| Cc1ccc2c(=O)c3cccc(CC(=O)O)c3oc2c1C | > 100 µM | > 100 µM | > 100 µM | > 100 µM | > 100 µM | > 100 µM | > 100 µM | > 100 µM | > 100 µM | > 100 µM | > 100 µM | > 100 µM | > 100 µM | > 100 µM | > 100 µM | > 100 µM | > 100 µM | > 100 µM | > 100 µM | > 100 µM |
| O=C1c2ccccc2-c2c1c1ccccc1c(=O)n2CCNCCNCCn1c2c(c3ccccc3c1=O)C(=O)c1ccccc1-2 | 19.3 µM | 14.9 µM | 12.3 µM | 8.79 µM | 24.5 µM | 8.98 µM | 1.31 µM | > 48.2 µM | 7.59 µM | 1.24 µM | 0.701 µM | 1.43 µM | 0.542 µM | 0.338 µM | 2.9 µM | 1.02 µM | 0.0545 µM | 19.1 µM | 0.0246 µM | 0.011 µM |
| O=C1c2ccccc2-c2c1c1ccccc1c(=O)n2CCCN1CCOCC1 | > 100 µM | > 100 µM | 19.6 µM | 21 µM | > 100 µM | > 100 µM | > 100 µM | 50.7 µM | > 100 µM | > 100 µM | 26.2 µM | > 100 µM | 6.65 µM | 5.83 µM | > 100 µM | 25 µM | 21.8 µM | 19.5 µM | 20 µM | > 44.4 µM |
| COC(=O)/C(=C\c1c(C)[nH]c2ccccc12)S(=O)(=O)c1ccccc1 | > 100 µM | > 100 µM | 11.5 µM | 13.3 µM | 18.7 µM | 7.56 µM | 12.8 µM | 25.5 µM | 9.61 µM | > 100 µM | 5.54 µM | 5.71 µM | 3.4 µM | 2.77 µM | 5.78 µM | 2.7 µM | 3.07 µM | 10.6 µM | 2.99 µM | 3.15 µM |
| COc1ccc(/C=C\c2cc(OC)c(OC)c(OC)c2)cc1OCC(=O)Nc1nc2ccc(C(F)(F)F)cc2s1 | > 100 µM | > 100 µM | 7.87 µM | > 100 µM | > 100 µM | 4.51 µM | > 100 µM | > 100 µM | > 100 µM | > 100 µM | 4.32 µM | 4.66 µM | 2.66 µM | 3.9 µM | 3 µM | 2.11 µM | 3.24 µM | 3.98 µM | 3.55 µM | 5.48 µM |
| CNC(=O)c1cccc(-c2ccc3c(N4CCOC[C@@H]4C)nc(N4CCOC[C@@H]4C)nc3n2)c1 | – | – | 1.49 µM and 1.26 µM and 0.677 µM | 0.339 µM and 0.438 µM and 0.452 µM | 0.72 µM and 3.01 µM and 0.671 µM | – | > 100 µM | 5.47 µM and 1.16 µM and 0.912 µM | > 100 µM | – | 0.0219 µM and 0.0809 µM and 0.0384 µM | – | 0.15 µM and 0.166 µM and 0.125 µM | 0.0393 µM and 0.082 µM and 0.0802 µM | 0.041 µM and 0.123 µM and 0.0402 µM | 0.0597 µM and 0.222 µM and 0.139 µM | 0.0909 µM and 0.267 µM and 0.16 µM | 0.0889 µM and 0.216 µM and 0.215 µM | 0.0422 µM and 0.0853 µM and 0.0538 µM | 0.0486 µM and 0.0473 µM and 0.0363 µM |
| COc1cc2c(/C=C3/C(=O)Nc4ccccc43)c(Cl)n(Cc3ccccc3[N+](=O)[O-])c2cc1C | 25.6 µM | 22.2 µM | 40.4 µM | 27 µM | 12.4 µM | 15 µM | 26.7 µM | 40.5 µM | > 100 µM | > 100 µM | 5.08 µM | 4.18 µM | 14.3 µM | 6.69 µM | 3.47 µM | 3.02 µM | 6.6 µM | 12.9 µM | 5.51 µM | 3.49 µM |
| C[C@]12CC[C@@H]3c4ccc(O)cc4CC[C@H]3[C@@H]1CC[C@@H]2NS(=O)(=O)Cc1ccc(Cl)cc1 | 15 µM | 13.6 µM | 4.39 µM | 4.56 µM | 4.22 µM | 3.83 µM | 7.76 µM | 6.35 µM | 5.31 µM | 15.5 µM | 2.64 µM | 2.69 µM | 1.88 µM | 1.92 µM | 2.01 µM | 1.91 µM | 2.33 µM | 2.54 µM | 2.23 µM | 3.14 µM |
| CCN(CC)CCOc1ccc(/C=C2\CC3C4CC=C5C[C@@H](N6CCCC6)CC[C@]5(C)C4CC[C@]3(C)[C@H]2O)cc1OC (some centres undefined) | 45.3 µM | > 82.3 µM | 3.93 µM | 34.6 µM | > 65.7 µM | 13.6 µM | 22.4 µM | > 100 µM | 65.7 µM | 6.34 µM | 4.66 µM | 24 µM | 1.91 µM | 16.6 µM | 20.5 µM | 5.06 µM | 3.45 µM | 9.64 µM | 14.2 µM | 2.24 µM |
| CC1=Cc2cc3[n-]c(cc4nc(cc5[n-]c(cc1n2)cc5C)C(C)=C4CCC(=O)O)c(CCC(=O)O)c3C.[Pd+2] | > 100 µM | > 46.8 µM | 13.7 µM | 34.1 µM | 12.7 µM | 27.1 µM | 42.5 µM | 44 µM | 59.2 µM | 36.9 µM | > 100 µM | – | 3.71 µM | 5.29 µM | 3.06 µM | 7.51 µM | 18.4 µM | 18.7 µM | 33.5 µM | 17.3 µM |
| CCOC(CN=c1nc(N(C)C)ss1)OCC | 32 µM | 33.1 µM | 31.4 µM | 21.4 µM | 58.9 µM | > 46.4 µM | 42.8 µM | 48.9 µM | > 94.4 µM | 8.54 µM | – | – | – | – | – | – | – | – | – | – |
| O=c1cc(-c2ccccc2)nc2n1CCN2Cc1ccccc1 | > 100 µM | > 100 µM | 73.5 µM | 66.7 µM | > 100 µM | 99.6 µM | > 100 µM | 50.5 µM | > 100 µM | 39.9 µM | 32.3 µM | 74.4 µM | 27.8 µM | 19.8 µM | 60 µM | 27.3 µM | 31.2 µM | 20.5 µM | 36 µM | 15.6 µM |
